{"source": "patent US20170000799A1", "about": "“ORAL PHARMACEUTICAL COMPOSITION” (LABORATORIOS DEL DR. ESTEVE, S.A., priority 2013, published 2017)", "origin": "cited, not measured here", "settings": "many organic solvents, including ethanol", "data": [{"compound": "O=C(NC[C@H]1CN(c2ccc(N3CCOCC3=O)cc2)C(=O)O1)c1ccc(Cl)s1", "note": "[Rivaroxaban, 5-Cloro-N-[2-oxo-3-[4-(3-oxomorpholin-4-yl)phenyl]-1,3-oxazolidin-5(S)-ylmethyl]-thiophene-2-carboxamide]", "values": [{"measurement": "solubility in organic solvents", "value": "low solubility"}]}]}
